# Measured values reported in paper PMC4844702, “Selective inhibition of the kinase DYRK1A by targeting its folding process” (Nature Communications, 2016).
# How the values were obtained:
# Test in all cases: Kinase panel (Carna)
# Format in all cases: biochemical
# ALK = molecular target: T1, ALK (Homo sapiens, UniProt Q9UM73)
# T1 construct: purchased Carna Biosciences
# Source text: (§1) Detailed information on the assay conditions is available on the website of Carna Biosciences (http://www.carnabio.com).
# AXL = molecular target: T2, AXL (Homo sapiens, UniProt P30530)
# T2 construct: purchased Carna Biosciences
# Source text: as §1
# BTK = molecular target: T3, BTK (Homo sapiens, UniProt Q06187)
# T3 construct: purchased Carna Biosciences
# Source text: as §1
# DDR1 = molecular target: T4, DDR1 (Homo sapiens, UniProt Q08345)
# T4 construct: purchased Carna Biosciences
# DDR2 = molecular target: T5, DDR2 (Homo sapiens, UniProt Q16832)
# T5 construct: purchased Carna Biosciences
# EPHB4 = molecular target: T6, EPHB4 (Homo sapiens, UniProt P54760)
# T6 construct: purchased Carna Biosciences
# Source text: as §1
# FES = molecular target: T7, FES (Homo sapiens, UniProt P07332)
# T7 construct: purchased Carna Biosciences
# Source text: as §1
# INSR = molecular target: T8, INSR (Homo sapiens, UniProt P06213)
# T8 construct: purchased Carna Biosciences
# Source text: as §1
# JAK2 = molecular target: T9, JAK2 (Homo sapiens, UniProt O60674)
# T9 construct: purchased Carna Biosciences
# Source text: as §1
# JAK3 = molecular target: T10, JAK3 (Homo sapiens, UniProt P52333)
# T10 construct: purchased Carna Biosciences
# Source text: as §1
# RON = molecular target: T11, RON (Homo sapiens, UniProt Q04912)
# T11 construct: purchased Carna Biosciences
# Source text: as §1
# SRC = molecular target: T12, SRC (Homo sapiens, UniProt P12931)
# T12 construct: purchased Carna Biosciences
# Source text: as §1
# AurA/TPX2 = molecular target: T13, AurA/TPX2 (Homo sapiens, UniProt O14965)
# T13 construct: purchased Carna Biosciences
# Source text: as §1
# BRSK1 = molecular target: T14, BRSK1 (Homo sapiens, UniProt Q8TDC3)
# T14 construct: purchased Carna Biosciences
# Source text: as §1
# CaMK2α = molecular target: T15, CaMK2α (Homo sapiens, UniProt Q9UQM7)
# T15 construct: purchased Carna Biosciences
# Source text: as §1
# CaMK2δ = molecular target: T16, CaMK2δ (Homo sapiens, UniProt Q13557)
# T16 construct: purchased Carna Biosciences
# CDK2/CycA2 = molecular target: T17, CDK2/CycA2 (Homo sapiens, UniProt P24941)
# T17 construct: purchased Carna Biosciences
# Source text: as §1
# CDK2/CycE1 = molecular target: T18, CDK2/CycE1 (Homo sapiens, UniProt P24941)
# T18 construct: purchased Carna Biosciences
# Source text: as §1
# CDK7/CycH/MAT1 = molecular target: T19, CDK7/CycH/MAT1 (Homo sapiens, UniProt P50613)
# T19 construct: purchased Carna Biosciences
# Source text: as §1
# CHK1 = molecular target: T20, CHK1 (Homo sapiens, UniProt O14757)
# T20 construct: purchased Carna Biosciences
# Source text: as §1
# CHK2 = molecular target: T21, CHK2 (Homo sapiens, UniProt O96017)
# T21 construct: purchased Carna Biosciences
# CK1α = molecular target: T22, CK1α (Homo sapiens, UniProt P48729)
# T22 construct: purchased Carna Biosciences
# COT_Cascade = molecular target: T23, COT_Cascade (Homo sapiens, UniProt P41279)
# T23 construct: purchased Carna Biosciences
# CRIK = molecular target: T24, CRIK (Homo sapiens, UniProt O14578)
# T24 construct: purchased Carna Biosciences
# Haspin = molecular target: T25, Haspin (Homo sapiens, UniProt Q8TF76)
# T25 construct: purchased Carna Biosciences
# HIPK3 = molecular target: T26, HIPK3 (Homo sapiens, UniProt Q9H422)
# T26 construct: purchased Carna Biosciences
# Source text: as §1
# IKKε = molecular target: T27, IKKε (Homo sapiens, UniProt Q14164)
# T27 construct: purchased Carna Biosciences
# Source text: as §1
# LATS2 = molecular target: T28, LATS2 (Homo sapiens, UniProt Q9NRM7)
# T28 construct: purchased Carna Biosciences
# LOK = molecular target: T29, LOK (Homo sapiens, UniProt O94804)
# T29 construct: purchased Carna Biosciences
# MAP3K4_Cascade = molecular target: T30, MAP3K4_Cascade (Homo sapiens, UniProt Q9Y6R4)
# T30 construct: purchased Carna Biosciences
# Source text: as §1
# NuaK1 = molecular target: T31, NuaK1 (Homo sapiens, UniProt O60285)
# T31 construct: purchased Carna Biosciences
# MELK = molecular target: T32, MELK (Homo sapiens, UniProt Q14680)
# T32 construct: purchased Carna Biosciences
# Source text: as §1
# MGC42105 = molecular target: T33, MGC42105 (Homo sapiens, UniProt Q8IY84)
# T33 construct: purchased Carna Biosciences
# Source text: as §1
# MRCKβ = molecular target: T34, MRCKβ (Homo sapiens, UniProt Q9Y5S2)
# T34 construct: purchased Carna Biosciences
# NDR2 = molecular target: T35, NDR2 (Homo sapiens, UniProt Q9Y2H1)
# T35 construct: purchased Carna Biosciences
# Source text: as §1
# NEK1 = molecular target: T36, NEK1 (Homo sapiens, UniProt Q96PY6)
# T36 construct: purchased Carna Biosciences
# Source text: as §1
# PAK1 = molecular target: T37, PAK1 (Homo sapiens, UniProt Q13153)
# T37 construct: purchased Carna Biosciences
# Source text: as §1
# PAK3 = molecular target: T38, PAK3 (Homo sapiens, UniProt O75914)
# T38 construct: purchased Carna Biosciences
# Source text: as §1
# PIM1 = molecular target: T39, PIM1 (Homo sapiens, UniProt P11309); settings: 10 µM FINDY
# T39 construct: purchased Carna Biosciences
# Source text: as §1
# PIM3 = molecular target: T40, PIM3 (Homo sapiens, UniProt Q86V86); settings: 10 µM FINDY
# T40 construct: purchased Carna Biosciences
# PKCι = molecular target: T41, PKCι (Homo sapiens, UniProt P41743)
# T41 construct: purchased Carna Biosciences
# Source text: as §1
# SRPK1 = molecular target: T42, SRPK1 (Homo sapiens, UniProt Q96SB4)
# T42 construct: purchased Carna Biosciences
# Source text: as §1
# TSSK1 = molecular target: T43, TSSK1 (Homo sapiens, UniProt Q9BXA7)
# T43 construct: purchased Carna Biosciences
# Source text: as §1
# WNK2 = molecular target: T44, WNK2 (Homo sapiens, UniProt Q9Y3S1)
# T44 construct: purchased Carna Biosciences
# Source text: as §1
# T30 sequence (Q9Y6R4 whole entry): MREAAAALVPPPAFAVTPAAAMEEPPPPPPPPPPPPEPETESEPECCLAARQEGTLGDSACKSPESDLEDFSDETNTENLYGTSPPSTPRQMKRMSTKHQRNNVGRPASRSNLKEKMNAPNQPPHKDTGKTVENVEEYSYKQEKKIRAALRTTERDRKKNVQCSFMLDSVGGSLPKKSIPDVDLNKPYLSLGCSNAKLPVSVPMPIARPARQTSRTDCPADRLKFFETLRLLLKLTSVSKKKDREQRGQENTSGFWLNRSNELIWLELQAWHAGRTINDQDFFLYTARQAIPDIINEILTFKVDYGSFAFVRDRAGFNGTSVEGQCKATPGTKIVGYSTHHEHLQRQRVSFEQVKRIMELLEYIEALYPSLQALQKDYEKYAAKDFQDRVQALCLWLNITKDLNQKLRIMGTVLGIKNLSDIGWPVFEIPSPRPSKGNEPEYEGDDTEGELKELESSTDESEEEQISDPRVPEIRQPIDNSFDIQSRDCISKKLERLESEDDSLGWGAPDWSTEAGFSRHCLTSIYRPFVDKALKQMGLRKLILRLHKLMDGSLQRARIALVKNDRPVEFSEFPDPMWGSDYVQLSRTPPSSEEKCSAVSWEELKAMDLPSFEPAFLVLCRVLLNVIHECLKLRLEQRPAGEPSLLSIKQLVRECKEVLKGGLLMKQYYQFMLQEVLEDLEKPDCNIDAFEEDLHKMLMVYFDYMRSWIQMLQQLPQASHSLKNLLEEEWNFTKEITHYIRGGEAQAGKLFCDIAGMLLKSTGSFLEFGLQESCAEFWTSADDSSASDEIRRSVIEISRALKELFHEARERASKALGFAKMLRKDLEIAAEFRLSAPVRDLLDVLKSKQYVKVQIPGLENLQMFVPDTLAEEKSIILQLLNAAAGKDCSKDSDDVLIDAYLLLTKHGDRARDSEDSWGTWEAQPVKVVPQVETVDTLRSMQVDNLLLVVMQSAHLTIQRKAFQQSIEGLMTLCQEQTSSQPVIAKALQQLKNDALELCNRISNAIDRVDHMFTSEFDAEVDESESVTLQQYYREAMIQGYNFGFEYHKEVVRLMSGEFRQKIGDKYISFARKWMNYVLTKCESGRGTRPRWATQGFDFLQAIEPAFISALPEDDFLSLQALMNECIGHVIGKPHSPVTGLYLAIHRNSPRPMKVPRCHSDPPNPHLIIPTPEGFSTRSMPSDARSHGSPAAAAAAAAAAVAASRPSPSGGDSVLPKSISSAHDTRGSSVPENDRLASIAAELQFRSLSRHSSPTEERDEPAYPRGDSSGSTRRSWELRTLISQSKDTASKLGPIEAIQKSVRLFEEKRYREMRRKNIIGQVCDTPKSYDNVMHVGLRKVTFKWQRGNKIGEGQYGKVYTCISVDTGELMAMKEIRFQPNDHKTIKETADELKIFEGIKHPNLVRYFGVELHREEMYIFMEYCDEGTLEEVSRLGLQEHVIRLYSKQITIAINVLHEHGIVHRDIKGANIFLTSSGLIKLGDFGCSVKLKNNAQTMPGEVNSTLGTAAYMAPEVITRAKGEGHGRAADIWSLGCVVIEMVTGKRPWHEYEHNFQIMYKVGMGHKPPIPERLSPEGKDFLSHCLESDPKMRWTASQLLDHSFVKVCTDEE
# T5 sequence (Q16832 22-855): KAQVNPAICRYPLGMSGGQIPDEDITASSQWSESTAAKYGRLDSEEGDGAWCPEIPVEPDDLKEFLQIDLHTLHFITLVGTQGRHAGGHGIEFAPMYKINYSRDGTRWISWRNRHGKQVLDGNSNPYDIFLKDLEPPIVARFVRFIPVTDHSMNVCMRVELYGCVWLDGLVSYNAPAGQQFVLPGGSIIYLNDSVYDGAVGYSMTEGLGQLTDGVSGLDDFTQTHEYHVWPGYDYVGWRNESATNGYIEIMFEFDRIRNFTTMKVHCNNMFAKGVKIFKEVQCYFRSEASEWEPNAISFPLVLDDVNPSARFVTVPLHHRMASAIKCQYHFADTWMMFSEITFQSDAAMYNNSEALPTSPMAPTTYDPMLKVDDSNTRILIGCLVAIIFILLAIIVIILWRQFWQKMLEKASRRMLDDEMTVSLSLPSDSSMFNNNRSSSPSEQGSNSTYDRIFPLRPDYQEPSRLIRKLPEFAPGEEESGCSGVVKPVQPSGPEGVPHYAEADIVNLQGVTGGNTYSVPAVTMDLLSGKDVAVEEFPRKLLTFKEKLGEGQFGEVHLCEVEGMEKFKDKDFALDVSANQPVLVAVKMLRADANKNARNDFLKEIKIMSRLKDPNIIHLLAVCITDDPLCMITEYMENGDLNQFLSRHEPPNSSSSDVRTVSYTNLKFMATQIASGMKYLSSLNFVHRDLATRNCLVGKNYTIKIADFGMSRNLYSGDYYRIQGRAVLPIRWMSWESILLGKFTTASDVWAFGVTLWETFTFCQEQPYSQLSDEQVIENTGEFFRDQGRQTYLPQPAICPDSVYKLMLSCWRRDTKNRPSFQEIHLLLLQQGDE
# T36 sequence (Q96PY6 whole entry): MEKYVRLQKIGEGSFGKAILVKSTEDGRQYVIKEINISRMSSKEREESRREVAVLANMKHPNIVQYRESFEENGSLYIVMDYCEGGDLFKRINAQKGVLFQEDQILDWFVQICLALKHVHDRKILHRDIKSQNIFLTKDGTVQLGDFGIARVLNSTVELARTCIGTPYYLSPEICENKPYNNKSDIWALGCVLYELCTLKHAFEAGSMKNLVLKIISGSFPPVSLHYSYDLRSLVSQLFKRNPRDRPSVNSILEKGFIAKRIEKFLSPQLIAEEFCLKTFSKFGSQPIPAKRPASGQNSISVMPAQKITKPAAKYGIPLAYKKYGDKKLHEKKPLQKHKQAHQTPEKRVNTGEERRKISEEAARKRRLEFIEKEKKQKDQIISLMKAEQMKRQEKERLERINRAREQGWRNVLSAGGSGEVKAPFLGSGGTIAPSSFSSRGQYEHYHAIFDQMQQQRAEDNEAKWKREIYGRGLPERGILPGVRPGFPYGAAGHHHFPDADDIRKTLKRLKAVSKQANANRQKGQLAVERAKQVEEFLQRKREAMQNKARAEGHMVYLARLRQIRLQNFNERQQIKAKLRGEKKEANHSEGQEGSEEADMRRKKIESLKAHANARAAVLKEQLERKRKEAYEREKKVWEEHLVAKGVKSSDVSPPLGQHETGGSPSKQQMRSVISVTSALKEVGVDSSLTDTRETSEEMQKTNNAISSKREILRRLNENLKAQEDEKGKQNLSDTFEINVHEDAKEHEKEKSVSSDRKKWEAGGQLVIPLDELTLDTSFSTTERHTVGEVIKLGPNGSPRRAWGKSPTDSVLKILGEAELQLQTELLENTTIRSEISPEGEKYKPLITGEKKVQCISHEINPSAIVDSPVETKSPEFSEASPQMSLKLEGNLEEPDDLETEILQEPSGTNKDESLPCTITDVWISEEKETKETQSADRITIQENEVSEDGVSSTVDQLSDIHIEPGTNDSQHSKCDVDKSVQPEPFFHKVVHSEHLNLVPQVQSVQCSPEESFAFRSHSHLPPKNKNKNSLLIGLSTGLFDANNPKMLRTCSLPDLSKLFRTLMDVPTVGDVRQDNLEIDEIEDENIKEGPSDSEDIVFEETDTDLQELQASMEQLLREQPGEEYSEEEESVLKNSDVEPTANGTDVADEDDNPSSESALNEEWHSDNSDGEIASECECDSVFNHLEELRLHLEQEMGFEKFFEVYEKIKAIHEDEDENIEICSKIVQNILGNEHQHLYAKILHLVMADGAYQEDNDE
# T10 sequence (P52333 whole entry): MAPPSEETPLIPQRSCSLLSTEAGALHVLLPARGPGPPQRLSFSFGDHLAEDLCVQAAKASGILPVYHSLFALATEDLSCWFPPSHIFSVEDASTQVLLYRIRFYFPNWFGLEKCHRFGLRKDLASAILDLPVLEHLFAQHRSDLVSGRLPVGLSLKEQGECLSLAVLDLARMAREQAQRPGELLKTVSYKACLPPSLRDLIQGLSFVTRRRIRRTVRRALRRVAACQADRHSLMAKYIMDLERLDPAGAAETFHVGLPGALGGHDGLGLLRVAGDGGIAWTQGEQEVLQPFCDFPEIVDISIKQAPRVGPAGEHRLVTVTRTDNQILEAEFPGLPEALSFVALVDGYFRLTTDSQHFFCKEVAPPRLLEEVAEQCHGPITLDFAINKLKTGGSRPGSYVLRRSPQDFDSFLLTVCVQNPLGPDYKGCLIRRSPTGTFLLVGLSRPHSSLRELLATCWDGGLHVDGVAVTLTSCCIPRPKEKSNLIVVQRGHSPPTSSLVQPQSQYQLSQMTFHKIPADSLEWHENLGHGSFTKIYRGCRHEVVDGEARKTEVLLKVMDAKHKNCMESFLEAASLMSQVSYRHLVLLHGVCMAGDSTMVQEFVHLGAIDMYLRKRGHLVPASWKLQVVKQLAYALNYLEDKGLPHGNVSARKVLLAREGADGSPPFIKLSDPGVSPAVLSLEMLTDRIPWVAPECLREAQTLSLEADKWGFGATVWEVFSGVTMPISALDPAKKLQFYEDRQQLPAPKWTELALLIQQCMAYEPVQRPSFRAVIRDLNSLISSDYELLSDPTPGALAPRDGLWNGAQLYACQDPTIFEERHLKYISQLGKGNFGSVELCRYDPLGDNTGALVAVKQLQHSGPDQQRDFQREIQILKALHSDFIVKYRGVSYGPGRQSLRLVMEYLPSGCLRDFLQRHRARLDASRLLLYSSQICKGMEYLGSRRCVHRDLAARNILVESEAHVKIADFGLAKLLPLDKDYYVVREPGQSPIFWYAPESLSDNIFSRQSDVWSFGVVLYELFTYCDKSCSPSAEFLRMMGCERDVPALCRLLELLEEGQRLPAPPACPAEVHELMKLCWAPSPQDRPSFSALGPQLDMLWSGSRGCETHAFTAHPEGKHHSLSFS
smiles,measurement,setting,value
COc1ccc(/C=C2\SC(=S)NC2=O)cc1C#C[Si](C)(C)C [FINDY],inhibition at 10 µM,ALK,-4.3%
same,inhibition at 10 µM,AXL,6.7%
same,inhibition at 10 µM,BTK,57.9%
same,inhibition at 10 µM,DDR1,-3.2%
same,inhibition at 10 µM,DDR2,13.5%
same,inhibition at 10 µM,EPHB4,20.5%
same,inhibition at 10 µM,FES,1.6%
same,inhibition at 10 µM,INSR,-1.3%
same,inhibition at 10 µM,JAK2,7.1%
same,inhibition at 10 µM,JAK3,8.2%
same,inhibition at 10 µM,RON,9.2%
same,inhibition at 10 µM,SRC,5.6%
same,inhibition at 10 µM,AurA/TPX2,25.1%
same,inhibition at 10 µM,BRSK1,24.3%
same,inhibition at 10 µM,CaMK2α,-6.9%
same,inhibition at 10 µM,CaMK2δ,-4%
same,inhibition at 10 µM,CDK2/CycA2,31.3%
same,inhibition at 10 µM,CDK2/CycE1,64.9%
same,inhibition at 10 µM,CDK7/CycH/MAT1,15.2%
same,inhibition at 10 µM,CHK1,-119%
same,inhibition at 10 µM,CHK2,6.3%
same,inhibition at 10 µM,CK1α,6.1%
same,inhibition at 10 µM,COT_Cascade,55.4%
same,inhibition at 10 µM,CRIK,1.9%
same,inhibition at 10 µM,Haspin,30.3%
same,inhibition at 10 µM,HIPK3,7.1%
same,inhibition at 10 µM,IKKε,-2%
same,inhibition at 10 µM,LATS2,1.2%
same,inhibition at 10 µM,LOK,-28.2%
same,inhibition at 10 µM,MAP3K4_Cascade,39.8%
same,inhibition at 10 µM,NuaK1,-26.4%
same,inhibition at 10 µM,MELK,20.6%
same,inhibition at 10 µM,MGC42105,12.5%
same,inhibition at 10 µM,MRCKβ,0.1%
same,inhibition at 10 µM,NDR2,8.1%
same,inhibition at 10 µM,NEK1,37.3%
same,inhibition at 10 µM,PAK1,-0.2%
same,inhibition at 10 µM,PAK3,-14.7%
same,inhibition at 10 µM,PIM1,76.8%
same,inhibition at 10 µM,PIM3,83.1%
same,inhibition at 10 µM,PKCι,-4.3%
same,inhibition at 10 µM,SRPK1,7.5%
same,inhibition at 10 µM,TSSK1,3.3%
same,inhibition at 10 µM,WNK2,12.3%
